# Measured values: US6936447B1, “Autoinducer molecule” (priority 2000, dated 2005)
# Where two headings read alike, the source gives them in different places.
# Key:
# LasR protein = target: T1, LasR protein (Pseudomonas aeruginosa, UniProt P25084); test: Activation of the LasR protein by optical isomers
# T1 construct: expressed in transfected cells; host or cells: E. coli MG4 containing pKDT17 (plac-lasR plus lasB::lacZ reporter)
# [1] = test system: lasB promoter activity in E. coli MG4 (pKDT17, lasR + lasB::lacZ); test: P. aeruginosa autoinducer bioassay (lasB::lacZ β-galactosidase reporter); type: cell-based; settings: for β-galactosidase (lasB::lacZ promoter activity): average of four experiments ± range
# Experimental: (§1) For production of PAI, cultures of P. aeruginosa PAO1 or E. coli TB1 containing pLasI-1 were grown to the late-logarithmic phase in A medium (Maniatis, T., Fritsch, E. F., and Sambrook, J. (1992) Molecular Cloning: A Laboratory Manual, ed. Nolan C. (Cold Spring Harbor Laboratory, Cold Spring Harbor, N.Y.), 2nd Ed) supplemented with 0.4% glucose, 0.05% yeast extract, and 1 mM MgSO4 with shaking at 37° C., unless otherwise specified. For subsequent use in autoinducer bioassays, E. coli MG4 containing pKDT17 was grown in supplemented A medium at 30° C. with shaking, and E. coli VJS533 containing pHV200I^− was grown in L broth (Silhavy, T. J., Berman, M. L. and Enquist, L. W. (1984) Experiments with Gene Fusions (Cold Spring Harbor Lab., Cold Spring Harbor, N.Y.), P. 217) at 30° C. with shaking. For plasmid screening and maintenance, ampicillin (100 μg/ml) was included in E. coli cultures, and carbenicillin (200 ug/ml) was included in cultures of P. aeruginosa.
# For the bioassay, overnight cultures of E. coli containing the lasB-promoter reporter, pKDT17 were diluted in supplemented A mediun to an optical density of 0.1 at 660 nm, and stored on ice. Each bioassay consisted of 2 ml of the cell suspension plus the test sample. After 5.5 h at 30° C. with shaking, β-galactosidase activity was measured by the CHCl3-sodium dodecyl sulfate method described by Miller (Miller, J. A. (1976) Experiments in Molecular Genetics (Cold Spring Harbor Lab., Cold Spring Harbor, N.Y.), pp. 352-355). As described in Example 1, there was a linear dose response to autoinducer in this bioassay. Without addition of autoinducer, β-galactosidase activities were 25±10 Miller units, and with saturating amounts of autoinducer, β-galactosidase activities were 1300±200 Miller units. A unit of P. aeruginosa autoinducer activity is defined as that amount required to achieve ½-saturation in the bioassay.
# [2] = test system: V. fischeri luminescence genes (LuxR) in E. coli VJS533 (pHV200I−); test: V. fischeri autoinducer bioassay (luminescence); type: cell-based
# Experimental: as §1
# The quantitative assay for VAI was based on those described elsewhere (Kaplan, H. B. and Greenberg, E. P. (1985) J. Bacteriol. 163, 1210-1214; Bainton, N. J., Bycroft, B. W., Chhabra, S. R., Stead, P., Gledhill, L., Hill, P. J., Rees, C. E. D., Winson, M. K., Salmond, G. P. C., Stewart, G. S. A. B. and Williams, P. (1992) Gene 116, 87-91; Nealson, K. H. (1977) Arch. Microbiol. 112, 73-79). E. coli VJS533 containing pHV200I^− was used to test for V. fischeri autoinducer activity. The plasmid, pHV200I^− contains all of the V. fischeri genes necessary for autoinducible luminescence in E. coli, however, the gene encoding autoinducer synthase, luxI, is inactivated such that E. coli containing pHV200I^− is not luminescent without addition of VAI. Overnight cultures of E. coli containing pHV200I^− were diluted to an optical density of 0.01 at 660 nm in an assay medium consisting of 0.05% tryptone, 0.03% glycerol, 100 mM NaCl, 50 mM MgSO4, and 10 mM potassium phosphate, pH 7. […] After 3 hours at room temperature, luminescence was measured by using a Beckman LS 1800 Scintillation Counter that was set for single photon counting. […]
# [3] = test system: V. fischeri luminescence genes (LuxR) in E. coli VJS533 (pHV200I−); settings: literature (Eberhard et al. 1986), cited from earlier work
# [4] = test system: conjugal transfer genes in Agrobacterium tumefaciens; settings: literature (Zhang et al. 1993); cited from earlier work
# T1 sequence (P25084 whole entry): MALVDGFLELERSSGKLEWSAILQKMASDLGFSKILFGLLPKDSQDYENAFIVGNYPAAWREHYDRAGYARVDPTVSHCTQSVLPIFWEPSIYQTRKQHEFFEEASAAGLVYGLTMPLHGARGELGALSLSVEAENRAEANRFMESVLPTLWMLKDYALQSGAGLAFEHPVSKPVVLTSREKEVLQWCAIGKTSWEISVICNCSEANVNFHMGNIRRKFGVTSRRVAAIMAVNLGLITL
structure (smiles),measurement,setting,value
"CCCCCCCCCC(=O)CC(=O)N[C@H]1CCOC1=O (single isomer, unassigned) [D-isomer, N-(3-oxododecanoyl)homoserine lactone]",activity of the isomer (activation of the LasR protein),LasR protein,small amount of activity
same,inhibition of the ability of the L-isomer to activate the LasR protein,LasR protein; by attaching to the autoinducer binding domain of LasR,can inhibit
"CCCC(=O)CC(=O)N[C@H]1CCOC1=O [VAI, N-(3-oxohexanoyl)homoserine lactone]","activity as P. aeruginosa autoinducer (inducer of lasB promoter), in words",[1],did not show any detectable activity
same,β-galactosidase (lasB::lacZ promoter activity),[1]; 50 nM autoinducer added,33 +/− 3 Miller units
same,β-galactosidase (lasB::lacZ promoter activity),[1]; 500 nM autoinducer added,34 +/− 1 Miller units
same,activity in the P. aeruginosa autoinducer bioassay,[1]; concentrations as high as 1 uM,no detectable activity
same,concentration giving maximal response in the V. fischeri autoinducer bioassay,[2],about 50 nM
same,EC50,"[2]; synthetic VAI standard curve, read-out: half-maximal response in V. fischeri autoinducer bioassay (one unit of activity)",~25 nM
"CCCCCCCCCC(=O)CC(=O)NC1CCOC1=O [N-(3-oxododecanoyl) L-homoserine lactone, N-(3-oxododecanoyl)homoserine lactone]","activity as P. aeruginosa autoinducer (inducer of lasB promoter), in words",[1],biologically active
same,EC50,"[1]; Escherichia coli, read-out: half-maximal response in P. aeruginosa autoinducer bioassay",3 to 5 nM
same,VAI activity (induction of luminescence) of HPLC peaks,[2]; HPLC fractions of PAI peaks,no significant VAI activity
same,activity of the isomer (activation of the LasR protein),LasR protein,active form
"CCCCCC(=O)CC(=O)NC1CCOC1=O (centres unmarked) [AAI, N-(3-oxooctanoyl)homoserine lactone]","activity as P. aeruginosa autoinducer (inducer of lasB promoter), in words",[1],considerable activity
same,β-galactosidase (lasB::lacZ promoter activity),[1]; 50 nM autoinducer added,56 +/− 5 Miller units
same,β-galactosidase (lasB::lacZ promoter activity),[1]; 500 nM autoinducer added,733 +/− 50 Miller units
same,"concentration required for activity as the P. aeruginosa autoinducer, compared with PAI",[1]; relative to PAI,higher
same,"maximal response as P. aeruginosa autoinducer, compared with PAI",[1]; relative to PAI,lower
same,activity with V. fischeri LuxR / luminescence genes,[3],shows activity
same,activity with V. fischeri LuxR / luminescence genes,[3]; listed as N-(3-oxooctanoyl)homoserine lactone,some activity
same,activity as the A. tumefaciens autoinducer,[4],shows activity
